In patent US10301280B2 (Plexxikon Inc., priority 2012, dated 2019) one finds IC50 data, which are given here for 26 compounds.

The target in this test is c-kit kinase (Homo sapiens (Human), UniProt P10721). Briefly: c-Kit biochemical assay (AlphaScreen). As to conditions: c-kit biochemical inhibitory activity. As for the experimental part: Assays for biochemical cell-based activity of c-kit kinase are known in the art, for example, as described in U.S. Pat. Nos. 7,498,342 and 7,846,941, the disclosures of which are hereby incorporated by reference as it relates to such assays. The c-kit (or kinase domain thereof) is an active kinase in AlphaScreen. IC50 values are determined with respect to inhibition of c-Kit kinase activity, where inhibition of phosphorylation of a peptide substrate is measured as a function of compound concentration. Compounds to be tested were dissolved in DMSO to a concentration of 20 mM. These were diluted 30 μl into 120 μl of DMSO (4 mM) and 1 μl was added to an assay plate. These were then serially diluted 1:3 (50 μl to 100 μl DMSO) for a total of 8 points. Plates were prepared such that each kinase reaction is 20 μl in 1× kinase buffer (50 mM HEPES, pH 7.2, 5 mM MgCl2, 5 mM MnCl2, 0.01% NP-40, 0.2% BSA), 5% DMSO and 10 µM ATP. Substrate was 100 nM biotin-(E4Y)3 (Open Source Biotech, Inc.). C-kit kinase was at 0.1 ng per sample. After incubation of the kinase reaction for 1 hour at room temperature, 5 μl of donor beads (Streptavidin coated beads (Perkin Elmer Life Science) final concentration 1 μg/ml) in stop buffer (50 mM EDTA in 1× kinase buffer) was added, the sample was mixed and incubated for 20 minutes at room temperature before adding 5 μl of acceptor beads (PY20 coated beads (Perkin Elmer Life Science) final concentration 1 μg/ml) in stop buffer. The samples were incubated for 60 minutes at room temperature and the signal per well was read on AlphaQuest reader. Phosphorylated substrate results in binding of the PY20 antibody and association of the donor and acceptor beads such that signal correlates with kinase activity. The signal vs. compound concentration was used to determine the IC50.
Sequence of c-kit kinase (P10721 26-976): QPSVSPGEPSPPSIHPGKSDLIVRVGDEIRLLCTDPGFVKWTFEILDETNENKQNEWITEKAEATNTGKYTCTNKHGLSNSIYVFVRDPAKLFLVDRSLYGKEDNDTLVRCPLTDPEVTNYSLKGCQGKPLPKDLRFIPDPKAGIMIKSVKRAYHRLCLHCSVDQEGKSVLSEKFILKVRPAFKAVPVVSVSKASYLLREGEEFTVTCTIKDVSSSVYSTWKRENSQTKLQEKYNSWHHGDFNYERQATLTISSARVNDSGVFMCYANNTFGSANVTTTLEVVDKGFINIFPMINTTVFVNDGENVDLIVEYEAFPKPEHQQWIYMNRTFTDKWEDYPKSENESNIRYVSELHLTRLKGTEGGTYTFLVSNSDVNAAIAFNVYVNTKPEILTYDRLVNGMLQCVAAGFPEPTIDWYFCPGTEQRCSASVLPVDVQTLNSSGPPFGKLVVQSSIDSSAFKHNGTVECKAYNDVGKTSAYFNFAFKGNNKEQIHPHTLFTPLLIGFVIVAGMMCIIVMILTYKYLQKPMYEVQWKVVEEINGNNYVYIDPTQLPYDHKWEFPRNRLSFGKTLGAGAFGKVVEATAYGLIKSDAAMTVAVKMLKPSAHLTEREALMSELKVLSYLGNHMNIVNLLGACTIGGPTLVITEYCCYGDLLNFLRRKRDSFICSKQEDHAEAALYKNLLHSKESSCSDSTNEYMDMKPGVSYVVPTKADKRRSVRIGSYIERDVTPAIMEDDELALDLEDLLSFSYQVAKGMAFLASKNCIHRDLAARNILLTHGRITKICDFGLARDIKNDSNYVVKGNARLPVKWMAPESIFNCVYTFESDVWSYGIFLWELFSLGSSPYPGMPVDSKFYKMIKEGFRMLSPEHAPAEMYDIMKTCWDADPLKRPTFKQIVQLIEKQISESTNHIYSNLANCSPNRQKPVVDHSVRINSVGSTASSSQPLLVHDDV
Compounds were also tested using a similar assay with a 10-fold higher ATP concentration. For these samples, compounds to be tested were dissolved in DMSO to a concentration of 20 mM. These were diluted 30 μl into 120 μl of DMSO (4 mM) and 1 μl was added to an assay plate. These were then serially diluted 1:3 (50 μl to 100 μl DMSO) for a total of 8 points. Plates were prepared such that each kinase reaction is 20 μl in 1× kinase buffer (25 mM HEPES, pH 7.5, 2 mM MgCl2, 2 mM MnCl2, 0.01% Tween-20, 1 mM DTT, and 0.001% BSA), 5% DMSO and 100 µM ATP. Substrate was 30 nM biotin-(E4Y)10 (Upstate Biotech, Cat#12-440). C-kit kinase was at 1 ng per sample. After incubation of the kinase reaction for 1 hour at room temperature, 5 μl of donor beads (Streptavidin coated beads (Perkin Elmer Life Science) final concentration 10 μg/ml) in stop buffer (25 mM HEPES pH 7.5, 100 mM EDTA, 0.3% BSA) was added, the sample was mixed and incubated for 20 minutes at room temperature before adding 5 μl of acceptor beads (PY20 coated beads (Perkin Elmer Life Science) final concentration 10 μg/ml) in stop buffer. The samples were incubated for 60 minutes at room temperature and the signal per well was read on AlphaQuest or Envision reader (Perkin Elmer Life Science). Phosphorylated substrate results in binding of the PY20 antibody and association of the donor and acceptor beads such that signal correlates with kinase activity. The signal vs. compound concentration was used to determine the IC50.
The c-kit enzyme used in the above assay was either obtained from Cell Signaling Technology (Cat. #7754) or was prepared as follows: A plasmid encoding kit (DNA and encoded protein sequences shown below) was engineered using common polymerase chain reaction (PCR) methods. Complementary DNA cloned from various human tissues were purchased from Invitrogen, and these were used as substrates in the PCR reactions. Specific custom synthetic oligonucleotide primers were designed to initiate the PCR product, and also to provide the appropriate restriction enzyme cleavage sites for ligation with the plasmids. […]
The term IC50 denotes the point on the concentration scale where inhibition reaches its midpoint. Read a low IC50 as inhibition by little substance. As to `COC(=O)c1cccc(C(=O)Nc2cnc3[nH]c(-c4ccccc4)cc3c2)c1` [P-2290, methyl 3-[(2-phenyl-1H-pyrrolo[2,3-b]pyridin-5-yl)carbamoyl]benzoate], the IC50 was in the range of 10 to 200 µM.

`Cc1n[nH]c(C(=O)Nc2cnc3[nH]c(-c4ccncc4Cl)cc3c2)c1C` [P-2278, N-[2-(3-chloro-4-pyridyl)-H-pyrrolo[2,3-b]pyridin-5-yl]-3,4-dimethyl-1H-pyrazole-5-carboxamide]: the IC50 lay in the range of 10 to 200 µM.

The compound `Cc1n[nH]c(C(=O)Nc2cnc3[nH]c(-c4ccc(F)cc4)cc3c2)c1C` [P-2024, N-[2-(4-fluorophenyl)-1H-pyrrolo[2,3-b]pyridin-5-yl]-3,4-dimethyl-1H-pyrazole-5-carboxamide] returned a half-inhibitory concentration (IC50) of 10 to 200 µM. Take `Cc1n[nH]c(C(=O)Nc2cnc3[nH]c(-c4cccc(C(=O)O)c4C)cc3c2)c1C` [P-2297, 3-[5-[(3,4-dimethyl-1H-pyrazole-5-carbonyl)amino]-1H-pyrrolo[2,3-b]pyridin-2-yl]-2-methyl-benzoic acid]: the IC50 lay in the range of 0.0001 to 1 µM. To `Cc1n[nH]c(C(=O)Nc2cnc3[nH]c(-c4cccc5c4OCC5)cc3c2)c1C` [P-2273, N-[2-(2,3-dihydrobenzofuran-7-yl)-1H-pyrrolo[2,3-b]pyridin-5-yl]-3,4-dimethyl-H-pyrazole-5-carboxamide] belongs 10 to 200 µM; to `Cc1n[nH]c(C(=O)Nc2cnc3[nH]c(C4=CCN(C(=O)N5CCOCC5)CC4)cc3c2)c1C` [P-2034, 3,4-dimethyl-N-[2-[1-(morpholine-4-carbonyl)-3,6-dihydro-2H-pyridin-4-yl]-1H-pyrrolo[2,3-b]pyridin-5-yl]-1H-pyrazole-5-carboxamide], 0.0001 to 1 µM. Take `CCOC(=O)Nc1cccc(Nc2ncc(NC(=O)c3[nH]nc(C)c3C)cn2)c1` [P-2055, ethyl N-[3-[[5-[(3,4-dimethyl-1H-pyrazole-5-carbonyl)amino]pyrimidin-2-yl]amino]phenyl]carbamate]: the 50% inhibitory concentration (IC50) was in the range of 1 to 10 µM.

Compound `Cc1cc(Cl)ccc1-c1cc2cc(NC(=O)c3[nH]nc(C)c3C)cnc2[nH]1` [P-2277, N-[2-(4-chloro-2-methyl-phenyl)-1H-pyrrolo[2,3-b]pyridin-5-yl]-3,4-dimethyl-1H-pyrazole-5-carboxamide] gave an IC50 of 10 to 200 µM. As for `COc1cncc(-c2cc3cc(NC(=O)c4[nH]nc(C)c4C)cnc3[nH]2)c1` [P-2183, N-[2-(5-methoxy-3-pyridyl)-1H-pyrrolo[2,3-b]pyridin-5-yl]-3,4-dimethyl-1H-pyrazole-5-carboxamide], the IC50 fell in the range of 10 to 200 µM. Turning to `Cc1n[nH]c(C(=O)Nc2cnc3[nH]nc(-c4cccc(N5CCN(C(=O)OC(C)(C)C)CC5)c4)c3c2)c1C` [P-2162, tert-butyl 4-[3-[5-[(3,4-dimethyl-1H-pyrazole-5-carbonyl)amino]-1H-pyrazolo[3,4-b]pyridin-3-yl]phenyl]piperazine-1-carboxylate], the IC50 is 0.0001 to 1 µM. To `Cc1n[nH]c(C(=O)Nc2cnc3[nH]c(-c4ccc(F)c(-c5nn[nH]n5)c4)cc3c2)c1C` [P-2174, N-[2-[4-fluoro-3-(2H-tetrazol-5-yl)phenyl]-1H-pyrrolo[2,3-b]pyridin-5-yl]-3,4-dimethyl-1H-pyrazole-5-carboxamide] belongs 1 to 10 µM; to `Cc1n[nH]c(C(=O)Nc2cnc3[nH]nc(-c4cccc(N5CCNCC5)c4)c3c2)c1C` [P-2166, 3,4-dimethyl-N-[3-(3-piperazin-1-ylphenyl)-1H-pyrazolo[3,4-b]pyridin-5-yl]-1H-pyrazole-5-carboxamide], 0.0001 to 1 µM. The compound `Cc1n[nH]c(C(=O)Nc2cnc3[nH]c(-c4c(C)nn(C)c4C)cc3c2)c1C` [P-2165, 3,4-dimethyl-N-[2-(1,3,5-trimethylpyrazol-4-yl)-1H-pyrrolo[2,3-b]pyridin-5-yl]-1H-pyrazole-5-carboxamide] showed an IC50 of 0.0001 to 1 µM.

On to `Cc1n[nH]c(C(=O)Nc2cnc3[nH]nc(C)c3c2)c1C` [P-2040, 3,4-dimethyl-N-(3-methyl-1H-pyrazolo[3,4-b]pyridin-5-yl)-1H-pyrazole-5-carboxamide], for which the half-maximal inhibitory concentration (IC50) lay in the range of 10 to 200 µM. For `[2H]c1c([2H])c([2H])c(-c2cc3cc(NC(=O)c4[nH]nc(C)c4C)cnc3[nH]2)c([2H])c1[2H]` [P-2164, 3,4-dimethyl-N-[2-(2,3,4,5,6-pentadeuteriophenyl)-1H-pyrrolo[2,3-b]pyridin-5-yl]-1H-pyrazole-5-carboxamide], the IC50 lay in the range of 1 to 10 µM. For `CCc1ccc(-c2cc3cc(NC(=O)c4[nH]nc(C)c4C)cnc3[nH]2)cn1` [P-2178, N-[2-(6-ethyl-3-pyridyl)-1H-pyrrolo[2,3-b]pyridin-5-yl]-3,4-dimethyl-1H-pyrazole-5-carboxamide], the IC50 lay within 10 to 200 µM. On to `Cc1cc(C(=O)Nc2cnc3[nH]c(C4=CCN(C(=O)C5CC5)CC4)cc3c2)n[nH]1` [P-2042, N-[2-[1-(cyclopropanecarbonyl)-3,6-dihydro-2H-pyridin-4-yl]-1H-pyrrolo[2,3-b]pyridin-5-yl]-5-methyl-1H-pyrazole-3-carboxamide], for which the half-inhibitory concentration (IC50) lay in the range of 0.0001 to 1 µM. `Cc1n[nH]c(C(=O)Nc2cnc3[nH]c(-c4ccnc(C(C)C)c4)cc3c2)c1C` [P-2163, N-[2-(2-isopropyl-4-pyridyl)-1H-pyrrolo[2,3-b]pyridin-5-yl]-3,4-dimethyl-1H-pyrazole-5-carboxamide]: the IC50 fell in the range of 0.0001 to 1 µM.

As for `Cc1n[nH]c(C(=O)Nc2cnc3[nH]c(-c4cnccc4C(N)=O)cc3c2)c1C` [P-2272, 3-[5-[(3,4-dimethyl-1H-pyrazole-5-carbonyl)amino]-1H-pyrrolo[2,3-b]pyridin-2-yl]pyridine-4-carboxamide], the IC50 was in the range of 10 to 200 µM. Turning to `O=C(Nc1cnc2[nH]c(-c3ccc(F)cc3)cc2c1)c1n[nH]c2ccccc12` [P-2046, N-[2-(4-fluorophenyl)-1H-pyrrolo[2,3-b]pyridin-5-yl]-1H-indazole-3-carboxamide], the IC50 is 10 to 200 µM.

The compound `O=C(Nc1cnc2[nH]c(-c3ccc(F)cc3)cc2c1)c1cccc2n[nH]cc12` [P-2027, N-[2-(4-fluorophenyl)-1H-pyrrolo[2,3-b]pyridin-5-yl]-2H-indazole-4-carboxamide] registered an IC50 of 0.0001 to 1 µM.

Regarding `Cc1n[nH]c(C(=O)Nc2cnc3[nH]c(C4=CCOCC4)cc3c2)c1C` [P-2271, N-[2-(3,6-dihydro-2H-pyran-4-yl)-1H-pyrrolo[2,3-b]pyridin-5-yl]-3,4-dimethyl-1H-pyrazole-5-carboxamide], the IC50 lay in the range of 0.0001 to 1 µM.

As for `CCNS(=O)(=O)c1cccc(Nc2ncc(NC(=O)c3[nH]nc(C)c3C)cn2)c1` [P-2050, N-[2-[3-(ethylsulfamoyl)anilino]pyrimidin-5-yl]-3,4-dimethyl-1H-pyrazole-5-carboxamide], the 50% inhibitory concentration (IC50) is 10 to 200 µM. The compound `Cc1n[nH]c(C(=O)Nc2cnc(Nc3cccc(N4CCOCC4)c3)nc2)c1C` [P-2051, 3,4-dimethyl-N-[2-(3-morpholinoanilino)pyrimidin-5-yl]-1H-pyrazole-5-carboxamide] came in with an IC50 of 0.0001 to 1 µM. To `Cc1n[nH]c(C(=O)Nc2cnc3[nH]c(C4=CCN(C(=O)N5CCOCC5)CC4)cc3c2)c1Cl` [P-2036, 4-chloro-3-methyl-N-[2-[1-(morpholine-4-carbonyl)-3,6-dihydro-2H-pyridin-4-yl]-1H-pyrrolo[2,3-b]pyridin-5-yl]-1H-pyrazole-5-carboxamide] belongs 0.0001 to 1 µM; to `Cc1n[nH]c(C(=O)Nc2cnc3[nH]c(-c4ccc(C5(C(=O)O)CC5)cc4)cc3c2)c1C` [P-2294, 1-[4-[5-[(3,4-dimethyl-1H-pyrazole-5-carbonyl)amino]-1H-pyrrolo[2,3-b]pyridin-2-yl]phenyl]cyclopropanecarboxylic acid], 0.0001 to 1 µM.
